Measurements as given in the NIST ThermoML archive (doi:10.1021/je700254t).
Numbers after ± are expanded uncertainties.

Assay: xn = mol fraction of the nth substance listed
Settings: 101.3 kPa, Liquid

ClC(Cl)Cl [trichloromethane] + CCCO
mass density [kg/m3]
Settings	288.15 K	293.15 K	298.15 K	303.15 K	308.15 K	313.15 K
x2 = 0	1498.08 ± 0.48	1488.64 ± 0.47	1479.15 ± 0.46	1469.61 ± 0.45	1460.03 ± 0.45	1450.41 ± 0.44
x2 = 0.0493	1465.28 ± 0.47	1456.03 ± 0.46	1446.74 ± 0.46	1437.41 ± 0.45	1428.01 ± 0.44	1418.58 ± 0.44
x2 = 0.0992	1432.56 ± 0.45	1423.54 ± 0.44	1414.47 ± 0.43	1405.35 ± 0.43	1396.17 ± 0.42	1386.95 ± 0.41
x2 = 0.1499	1399.07 ± 0.42	1390.3 ± 0.42	1381.48 ± 0.41	1372.61 ± 0.41	1363.67 ± 0.4	1354.7 ± 0.39
x2 = 0.2002	1365.96 ± 0.4	1357.46 ± 0.4	1348.9 ± 0.39	1340.28 ± 0.38	1331.6 ± 0.38	1322.86 ± 0.37
x2 = 0.2496	1333.59 ± 0.38	1325.35 ± 0.37	1317.05 ± 0.37	1308.69 ± 0.36	1300.27 ± 0.35	1291.8 ± 0.35
x2 = 0.2999	1300.43 ± 0.36	1292.46 ± 0.35	1284.43 ± 0.34	1276.34 ± 0.34	1268.19 ± 0.33	1260.01 ± 0.33
x2 = 0.3493	1267.61 ± 0.34	1259.92 ± 0.33	1252.16 ± 0.32	1244.35 ± 0.32	1236.47 ± 0.31	1228.55 ± 0.31
x2 = 0.4004	1233.49 ± 0.31	1226.07 ± 0.31	1218.59 ± 0.3	1211.06 ± 0.3	1203.46 ± 0.29	1195.83 ± 0.28
x2 = 0.4502	1200.08 ± 0.29	1192.93 ± 0.28	1185.74 ± 0.28	1178.48 ± 0.28	1171.16 ± 0.27	1163.79 ± 0.26
x2 = 0.5001	1166.15 ± 0.27	1159.29 ± 0.26	1152.38 ± 0.26	1145.42 ± 0.25	1138.38 ± 0.25	1131.32 ± 0.24
x2 = 0.5497	1132.24 ± 0.25	1125.66 ± 0.24	1119.03 ± 0.24	1112.35 ± 0.23	1105.6 ± 0.23	1098.81 ± 0.23
x2 = 0.5999	1097.62 ± 0.23	1091.33 ± 0.22	1084.99 ± 0.22	1078.61 ± 0.21	1072.15 ± 0.21	1065.65 ± 0.21
x2 = 0.6497	1062.78 ± 0.21	1056.79 ± 0.2	1050.75 ± 0.2	1044.65 ± 0.2	1038.49 ± 0.19	1032.31 ± 0.19
x2 = 0.7001	1027.34 ± 0.19	1021.65 ± 0.19	1015.91 ± 0.18	1010.11 ± 0.18	1004.26 ± 0.18	998.364 ± 0.17
x2 = 0.7499	991.931 ± 0.18	986.531 ± 0.18	981.083 ± 0.18	975.586 ± 0.19	970.031 ± 0.19	964.415 ± 0.19
x2 = 0.7998	956.019 ± 0.2	950.913 ± 0.2	945.767 ± 0.2	940.572 ± 0.21	935.323 ± 0.21	930.03 ± 0.21
x2 = 0.8503	919.243 ± 0.22	914.435 ± 0.22	909.588 ± 0.22	904.699 ± 0.23	899.757 ± 0.23	894.778 ± 0.23
x2 = 0.9002	882.47 ± 0.24	877.949 ± 0.24	873.397 ± 0.25	868.803 ± 0.25	864.163 ± 0.25	859.496 ± 0.25
x2 = 0.95	845.487 ± 0.27	841.239 ± 0.27	836.96 ± 0.27	832.652 ± 0.27	828.298 ± 0.27	823.912 ± 0.28

CCCO [propan-1-ol] + c1ccccc1
x1 = 1
Settings	mass density [kg/m3]
288.15 K	807.69 ± 0.25
293.15 K	803.703 ± 0.25
298.15 K	799.692 ± 0.25
303.15 K	795.65 ± 0.26
308.15 K	791.576 ± 0.26
313.15 K	787.466 ± 0.26

CCCO [propan-1-ol] + ClC(Cl)Cl
x1 = 1
Settings	mass density [kg/m3]
288.15 K	807.69 ± 0.25
293.15 K	803.703 ± 0.25
298.15 K	799.692 ± 0.25
303.15 K	795.65 ± 0.26
308.15 K	791.576 ± 0.26
313.15 K	787.466 ± 0.26

c1ccccc1 [benzene] + CCCO
mass density [kg/m3]
Settings	288.15 K	293.15 K	298.15 K	303.15 K	308.15 K	313.15 K
x2 = 0	884.246 ± 0.16	878.918 ± 0.17	873.582 ± 0.17	868.233 ± 0.17	862.871 ± 0.18	857.498 ± 0.18
x2 = 0.022	882.511 ± 0.16	877.177 ± 0.17	871.937 ± 0.17	866.489 ± 0.18	861.124 ± 0.18	855.764 ± 0.18
x2 = 0.0557	880.03 ± 0.17	874.714 ± 0.17	869.383 ± 0.17	864.034 ± 0.18	858.669 ± 0.18	853.296 ± 0.19
x2 = 0.0984	876.959 ± 0.17	871.673 ± 0.17	866.369 ± 0.18	861.047 ± 0.18	855.699 ± 0.18	850.343 ± 0.19
x2 = 0.1632	872.435 ± 0.17	867.203 ± 0.18	861.955 ± 0.18	856.682 ± 0.18	851.38 ± 0.19	846.063 ± 0.19
x2 = 0.2186	868.541 ± 0.18	863.367 ± 0.18	858.172 ± 0.18	852.95 ± 0.19	847.699 ± 0.19	842.427 ± 0.2
x2 = 0.2385	867.148 ± 0.18	861.999 ± 0.18	856.826 ± 0.19	851.625 ± 0.19	846.396 ± 0.19	841.156 ± 0.2
x2 = 0.3046	862.546 ± 0.18	857.468 ± 0.19	852.368 ± 0.19	847.234 ± 0.19	842.067 ± 0.2	836.875 ± 0.2
x2 = 0.3993	855.836 ± 0.19	850.881 ± 0.19	845.896 ± 0.2	840.877 ± 0.2	835.823 ± 0.2	830.744 ± 0.21
x2 = 0.4505	852.174 ± 0.19	847.288 ± 0.2	842.37 ± 0.2	837.417 ± 0.2	832.428 ± 0.21	827.425 ± 0.21
x2 = 0.5023	848.393 ± 0.2	843.581 ± 0.2	838.736 ± 0.21	833.856 ± 0.21	828.935 ± 0.21	823.986 ± 0.22
x2 = 0.6035	840.846 ± 0.21	836.186 ± 0.21	831.492 ± 0.21	826.762 ± 0.22	821.989 ± 0.22	817.183 ± 0.23
x2 = 0.66	836.494 ± 0.21	831.916 ± 0.22	827.312 ± 0.22	822.69 ± 0.22	817.981 ± 0.23	813.261 ± 0.23
x2 = 0.7035	833.115 ± 0.22	828.615 ± 0.22	824.081 ± 0.22	819.512 ± 0.23	814.9 ± 0.23	810.256 ± 0.23
x2 = 0.7453	829.801 ± 0.22	825.366 ± 0.22	820.902 ± 0.23	816.4 ± 0.23	811.856 ± 0.23	807.285 ± 0.24
x2 = 0.8016	825.211 ± 0.23	820.875 ± 0.23	816.507 ± 0.23	812.105 ± 0.24	807.61 ± 0.24	803.184 ± 0.24
x2 = 0.8447	821.474 ± 0.23	817.209 ± 0.23	812.998 ± 0.24	808.593 ± 0.24	804.229 ± 0.24	799.833 ± 0.25
x2 = 0.8981	816.954 ± 0.24	812.786 ± 0.24	808.589 ± 0.24	804.36 ± 0.24	800.093 ± 0.25	795.804 ± 0.25
x2 = 0.9495	812.375 ± 0.24	808.313 ± 0.24	804.141 ± 0.25	800.008 ± 0.25	795.838 ± 0.25	791.644 ± 0.26
